Results published in patent EP4722262A1, “PHOTOCURABLE COMPOSITION, THREE-DIMENSIONAL SHAPED OBJECT, CASTING MOLD, METHOD FOR PRODUCING CURED OBJECT, AND METHOD FOR PRODUCING DENTAL PROSTHESIS” (Mitsui Chemicals, Inc., priority 2023, dated 2025).

Assay: Viscosity at 25°C of manufactured monomers
Format: physicochemical

viscosity at 25°C: 7,100 mPa·s
SMILES: C=CC(=O)OCCOC(=O)NCCC(C)CC(C)(C)CNC(=O)OCCOC(=O)C=C (stereo not shown) [SUA-001]
